The values below come from PMC11847541, “Liver fatty acid binding protein FABP1 transfers substrates to cytochrome P450 4A11 for catalysis” (The Journal of Biological Chemistry, 2025).

For the assay, the target named is T1, P450 4A11 (Homo sapiens, UniProt Q02928).
T1 sequence (Q02928 5-519): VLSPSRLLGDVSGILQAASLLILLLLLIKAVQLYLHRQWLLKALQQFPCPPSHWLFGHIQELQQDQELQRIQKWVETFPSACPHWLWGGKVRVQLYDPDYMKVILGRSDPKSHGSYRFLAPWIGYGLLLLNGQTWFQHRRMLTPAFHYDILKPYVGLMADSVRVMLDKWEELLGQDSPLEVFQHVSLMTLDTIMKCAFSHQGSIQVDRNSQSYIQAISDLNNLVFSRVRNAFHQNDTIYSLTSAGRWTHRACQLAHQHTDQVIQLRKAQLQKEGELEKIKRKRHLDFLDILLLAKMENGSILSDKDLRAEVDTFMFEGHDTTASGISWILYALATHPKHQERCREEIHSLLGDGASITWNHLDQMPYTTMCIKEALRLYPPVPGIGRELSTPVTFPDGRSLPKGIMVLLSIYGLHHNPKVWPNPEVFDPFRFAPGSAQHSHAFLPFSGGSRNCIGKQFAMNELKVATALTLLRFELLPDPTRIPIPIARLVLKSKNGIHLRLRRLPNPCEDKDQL
Description: Ketoconazole trap experiment for lipid koff from P450 4A11. Also noted: made in house; host or cells: E. coli. Format: binding. The method, then: To assess the rates of lipid egress from P450 4A11 (k-1, k-3), lipids were tested in conjunction with the general P450 inhibitor ketoconazole in a “trap experiment” as we have recently described to estimate koff rates for P450–sterol complexes ([27], [28]). P450–lipid complexes were rapidly mixed with ketoconazole, and the spectral shift from 390 nm (substrate bound, type I) to 418 nm (inhibitor bound, type II) P450 was monitored over time (Fig. 9A, progression from blue to red curve). This spectral shift arises from the direct interaction of the azole nitrogen lone pair with the heme iron (forming a hexacoordinated heme species). This experiment is performed with an excess of ketoconazole (100 μM) to facilitate rapid capture of unliganded P450 yielded at the moment of lipid dissociation, such that ketoconazole kon approximates the lipid koff.
(The concentration of lipid added during preincubation reflects the affinity of the complex determined in equilibrium binding titrations; Fig. 8). The first phase of each trace relates to the ketoconazole capture of the unliganded enzyme (the majority–but not all–P450 was substrate bound at equilibrium), and the second phase correlates to the capture of enzyme yielded by the egress of the bound lipid (i.e., estimate of koff). […] The rates extracted for the second phase (koff) were 0.070 ± 0.006 s^−1 (k-3) and 0.20 ± 0.01 s^−1 (k-1), respectively.
Determination of P450 4A11 koff rates with lipids was performed using a ketoconazole “trap” experiment by adapting previously published protocols ([27], [28]). Solutions of (A) ketoconazole (200 μM) and (B) P450 4A11 (4 μM) and either palmitate (20 μM) or 16-OH palmitate (8 μM) were prepared (2 ml each, all in 100 mM potassium phosphate buffer [pH 7.4]) and loaded into the drive syringes of an OLIS stopped-flow spectrophotometer with the same procedure described for the P450 4A11 kon determination (aforementioned). The experiment was initiated by mixing equal volumes of each solution together, and the rate of ketoconazole binding to P450 is given by ΔA418-A390 (displacement of lipid [decrease in A390] because of ketoconazole binding [increase in A418]) and is a maximum value for the rate at which the P450–lipid complex dissociated (koff) (Fig. S14).
Figure S14. Absorbance traces used to determine P450 4A11 palmitate koff rate. The basis of the ketoconazole trap experiment is the spectral transition from substrate-bound (“Type I” shift, A390 (blue trace)) to inhibitor-bound (“Type II” shift, A418 (red trace)) P450 (Fig. 9A). The formation of ketoconazole-bound P450 (inhibitor complex) from palmitate-bound P450 (substrate complex) is over the course of the experiment shown above. The rate of formation of inhibitor-bound P450 is subtracted from the rate of decay of substrate-bound P450, and the resulting plot (Fig. 9D) is fit to a biexponential equation to estimate the dissociation rate (koff) of palmitate from the P450 4A11.

Where [1] appears, read: P450 4A11 2 μM preincubated with lipid, ketoconazole 100 μM.

SMILES strings stand for the structures.

For `O=C(O)CCCCCCCCCCCCCCCO` [16-OH Palmitate (C16), 16-hydroxypalmitate], under setting [1], the “first phase rate (k1), ketoconazole capture of unliganded enzyme” value stood at 1.3 ± 0.4 s⁻¹ and the “second phase rate = koff from P450 4A11” value was 0.070 ± 0.006 (k-3) s^−1. Also, under “calculated from koff and Kd”, the “kon to P450 4A11 (k3)” value is given as 2.6 × 10^5 (k3) M^−1 s^−1.
Consider `CCCCCCCCCCCCCCCC(=O)O` [Palmitate (C16), palmitate], for which the “first phase rate (k1), ketoconazole capture of unliganded enzyme” value under setting [1] was determined as 2.9 ± 0.1 s⁻¹. In addition, the koff (P450 4A11 2 μM preincubated with lipid, ketoconazole 100 μM, read-out: second phase rate = koff from P450 4A11) is 0.2 ± 0.01 s⁻¹. The Kd (quotient of experimentally determined rates, read-out: Kd estimate for P450 4A11 as koff/kon) is 4.8 µM.

By koff is commonly meant a measure of how fast the partners let go of each other.
